Tests used:
Mastomys natalensis [1] = test: Filaricidal activity against Brugia malayi in Mastomys at a dosage of 50 mg/kg x 5 administered intraperitoneally at a day of 21; format: functional; conditions: route intraperitoneal
Mastomys natalensis [2] = test: Filaricidal activity against Brugia malayi in Mastomys at a dosage of 50 mg/kg x 5 administered intraperitoneally; format: functional; conditions: route intraperitoneal
Sigmodon hispidus [3] = test: Filaricidal activity against Litomosoides carinii in cotton rats at a dosage of 100 mg/kg x 5 administered orally at a day of 21; conditions: route oral
Mastomys natalensis [4] = test: Filaricidal activity against Brugia malayi in Mastomys at a dosage of 50 mg/kg x 5 administered intraperitoneally at a day of 8; format: functional; conditions: route intraperitoneal
Mastomys natalensis [5] = test: Filaricidal activity against Dipetalonema viteae in Mastomys at a dosage of 25 mg/kg x 5 administered subcutaneous; format: functional
Mastomys natalensis [6] = test: Filaricidal activity against Brugia malayi in Mastomys at a dosage of 200 mg/kg x 5 administered orally at a day of 42; conditions: route oral
Mastomys natalensis [7] = test: Filaricidal activity against Dipetalonema viteae in Mastomys at a dosage of 150 mg/kg x 5 administered orally at a day of 8; format: functional; conditions: route oral
Cricetinae gen. sp. [8] = test: Anthelmintic activity against Ancylostoma ceylanicum in hamsters at a dose of 50x1 mg/kg administered perorally; format: functional, Cricetulus griseus
Rattus norvegicus [9] = test: Filaricidal activity against Litomosoides carinii in cotton rats at a dosage of 100 mg/kg x 5 administered orally; format: functional; conditions: route oral
Mastomys natalensis [10] = test: Filaricidal activity against Dipetalonema viteae in Mastomys at a dosage of 25 mg/kg x 5 administered subcutaneous at a day of 42; format: functional
Cricetinae gen. sp. [11] = test: Anthelmintic activity against Ancylostoma ceylanicum (hook worm) in hamsters at a dose of 50x1 mg/kg administered perorally; format: functional, Cricetulus griseus
Mastomys natalensis [12] = test: Filaricidal activity against Dipetalonema viteae in Mastomys at a dosage of 150 mg/kg x 5 administered orally at a day of 42; format: functional; conditions: route oral
Cricetinae gen. sp. [13] = test: Anthelmintic activity against Ancylostoma ceylanicum in hamsters at a dose of 25x1 mg/kg administered perorally; format: functional, Cricetulus griseus
Mastomys natalensis [14] = test: Filaricidal activity against Brugia malayi in Mastomys at a dosage of 200 mg/kg x 5 administered orally at a day of 63; format: functional; conditions: route oral
Mastomys natalensis [15] = test: Filaricidal activity against Dipetalonema viteae in Mastomys at a dosage of 150 mg/kg x 5 administered orally; format: functional; conditions: route oral
Mastomys natalensis [16] = test: Filaricidal activity against Brugia malayi in Mastomys at a dosage of 200 mg/kg x 5 administered orally at a day of 21; format: functional; conditions: route oral
Rattus norvegicus [17] = test: Filaricidal activity against Litomosoides carinii in cotton rats at a dosage of 10 mg/kg x 5 administered intraperitoneally at a day of 42; format: functional; conditions: route intraperitoneal
Mastomys natalensis [18] = test: Filaricidal activity against Dipetalonema viteae in Mastomys at a dosage of 25 mg/kg x 5 administered subcutaneous at a day of 8; format: functional
Mastomys natalensis [19] = test: Filaricidal activity against Brugia malayi in Mastomys at a dosage of 50 mg/kg x 5 administered intraperitoneally at a day of 42; format: functional; conditions: route intraperitoneal
Cricetinae gen. sp. [20] = test: Anthelmintic activity against Ancylostoma ceylanicum in hamsters at a dose of 12.5x1 mg/kg administered perorally; format: functional, Cricetulus griseus
Rattus norvegicus [21] = test: Anthelmintic activity against Hymenolepis nana in rats at a dose of 100x1 mg/kg administered perorally; format: functional
Mastomys natalensis [22] = test: Filaricidal activity against Dipetalonema viteae in Mastomys at a dosage of 150 mg/kg x 5 administered orally at a day of 21; format: functional; conditions: route oral
Cricetinae gen. sp. [23] = test: Anthelmintic activity against Ancylostoma ceylanicum in hamsters at a dose of 6.25 x1 mg/kg administered perorally; format: functional, Cricetulus griseus
Mastomys natalensis [24] = test: Filaricidal activity against Brugia malayi in Mastomys at a dosage of 200 mg/kg x 5 administered orally; format: functional; conditions: route oral
Sigmodon hispidus [25] = test: Filaricidal activity against Litomosoides carinii in cotton rats at a dosage of 10 mg/kg x 5 administered intraperitoneally at a day of 8; conditions: route intraperitoneal
Mus musculus [26] = test: Anthelmintic activity against Syphacia obvelata in mice at a dose of 100x1 mg/kg administered perorally; format: functional
Rattus norvegicus [27] = test: Anthelmintic activity against Hymenolepis nana in rats at a dose of 50x1 mg/kg administered perorally; format: functional
Sigmodon hispidus [28] = test: Filaricidal activity against Litomosoides carinii in cotton rats at a dosage of 10 mg/kg x 5 administered intraperitoneally at a day of 21; conditions: route intraperitoneal
Mastomys natalensis [29] = test: Filaricidal activity against Brugia malayi in Mastomys at a dosage of 50 mg/kg x 5 administered intraperitoneally at a day of 91; format: functional; conditions: route intraperitoneal
Mastomys natalensis [30] = test: Filaricidal activity against Brugia malayi in Mastomys at a dosage of 200 mg/kg x 5 administered orally at a day of 91; format: functional; conditions: route oral
Sigmodon hispidus [31] = test: Filaricidal activity against Litomosoides carinii in cotton rats at a dosage of 100 mg/kg x 5 administered orally at a day of 42; conditions: route oral
Mus musculus [32] = test: Anthelmintic activity against Syphacia obvelata in mice at a dose of 25x1 mg/kg administered perorally; format: functional
Mus musculus [33] = test: Anthelmintic activity against Syphacia obvelata in mice at a dose of 50x1 mg/kg administered perorally; format: functional
Sigmodon hispidus [34] = test: Filaricidal activity against Litomosoides carinii in cotton rats at a dosage of 10 mg/kg x 5 administered intraperitoneally at a day of 42; conditions: route intraperitoneal
Mastomys natalensis [35] = test: Filaricidal activity against Dipetalonema viteae in Mastomys at a dosage of 25 mg/kg x 5 administered subcutaneous at a day of 21; format: functional
Sigmodon hispidus [36] = test: Filaricidal activity against Litomosoides carinii in cotton rats at a dosage of 100 mg/kg x 5 administered orally at a day of 8; conditions: route oral
Mastomys natalensis [37] = test: Filaricidal activity against Brugia malayi in Mastomys at a dosage of 50 mg/kg x 5 administered intraperitoneally at a day of 63; format: functional; conditions: route intraperitoneal
Rattus norvegicus [38] = test: Anthelmintic activity against Hymenolepis nana in rats at a dose of 250x1 mg/kg administered perorally; format: functional
Mastomys natalensis [39] = test: Filaricidal activity against Brugia malayi in Mastomys at a dosage of 200 mg/kg x 5 administered orally at a day of 8; format: functional; conditions: route oral

COC(=O)Nc1nc2cc(C(=O)c3ccc4[nH]c(NC(=O)OC)nc4c3)ccc2[nH]1
Removal of microfilariae (Mastomys natalensis [1]): 60.1%
Death (Mastomys natalensis [2]): 99%
Removal of microfilariae (Sigmodon hispidus [3]): 80.9%
Removal of microfilariae (Mastomys natalensis [4]): 0%
Death (Mastomys natalensis [5]): 100%
Removal of microfilariae (Mastomys natalensis [6]): 30%
Removal of microfilariae (Mastomys natalensis [7]): 0%
Animals cured (Cricetinae gen. sp. [8]): 100%
Death (Rattus norvegicus [9]): 100%
Removal of microfilariae (Mastomys natalensis [10]): 100%
Worm reduction (Cricetinae gen. sp. [11]): 100%
Removal of microfilariae (Mastomys natalensis [12]): 100%
Animals cured (Cricetinae gen. sp. [13]): 50%
Worm reduction (Cricetinae gen. sp. [13]): 60%
Removal of microfilariae (Mastomys natalensis [14]): 63.9%
Death (Mastomys natalensis [15]): 100%
Removal of microfilariae (Mastomys natalensis [16]): 0%
Death (Rattus norvegicus [17]): 100%
Removal of microfilariae (Mastomys natalensis [18]): 0%
Removal of microfilariae (Mastomys natalensis [19]): 89%
Animals cured (Cricetinae gen. sp. [20]): 0%
Worm reduction (Cricetinae gen. sp. [20]): 40.4%
Animals cured (Rattus norvegicus [21]): 50%
Removal of microfilariae (Mastomys natalensis [22]): 0%
Animals cured (Cricetinae gen. sp. [23]): 0%
Worm reduction (Cricetinae gen. sp. [23]): 0%
Death (Mastomys natalensis [24]): 97%
Removal of microfilariae (Sigmodon hispidus [25]): 65.6%
Animals cured (Mus musculus [26]): 100%
Animals cured (Rattus norvegicus [27]): 16.6%
Removal of microfilariae (Sigmodon hispidus [28]): 100%
Removal of microfilariae (Mastomys natalensis [29]): 93%
Removal of microfilariae (Mastomys natalensis [30]): 94%
Removal of microfilariae (Sigmodon hispidus [31]): 100%
Animals cured (Mus musculus [32]): 0%
Animals cured (Mus musculus [33]): 66.6%
Removal of microfilariae (Sigmodon hispidus [34]): 100%
Removal of microfilariae (Mastomys natalensis [35]): 58.8%
Removal of microfilariae (Sigmodon hispidus [36]): 72%
Removal of microfilariae (Mastomys natalensis [37]): 89.4%
Animals cured (Rattus norvegicus [38]): 100%
Removal of microfilariae (Mastomys natalensis [39]): 0%

Reference: ChEMBL document CHEMBL1123320, “Studies in potential filaricides. 18. Synthesis of 2,2'-disubstituted 5,5'-dibenzimidazolyl ketones and related compounds as potential anthelmintics” (1986)
